According to PubChem BioAssay AID1963424 (Molecular Pharmacology Branch, DTP, NCI, 2024):

Tested on: 327498-153-R-J2-PDC complex spheroid growth, % test/control
Experiment: Anticancer human tumor 327498-153-R-J2-PDC patient-derived uterine carcinosarcoma cell line growth inhibition [Asc]
Conditions: for IC50: curve of first compound; for viability, T/C: stronger effect = lower value
Method: Multicellular complex tumor spheroid response to apoptosis pathway targeting inhibitors Alrizomadlin, Pelcitoclax, and Dasminapant in combination with a variety of drugs and investigational agents in selected tumor cell lines
The MDM2 inhibitor alrizomadlin, the Bcl-2/Bcl-xL inhibitor pelcitoclax, and the IAPs inhibitor dasminapant were evaluated both individually and in combination with standard of care and investigational anticancer small molecules within a complex spheroid model of solid tumors. . Complex spheroids include a stromal component modeled by human endothelial cells (HUVEC) and fibroblasts modeled by human mesenchymal stem cells (MSCs). The concentration ranges selected for each drug and investigational agent were based upon clinically achievable concentrations if the clinical Cmax of the agent was known.
Compounds. The drugs and investigational agents: alrizomadlin (APG-115; NSC831270), pelcitoclax (APG-1252; NSC835773), dasminapant (APG-1387;NSC834197), TAK-243 (NSC785004), copanlisib (NSC809693), olaparib (NSC753686), talazoparib (NSC767125), cobimetinib (NSC 768068), eltanexor (KPT-8602, NSC 794443), abemaciclib (NSC 768073), sotorasib (NSC818433), adagrasib (NSC 831453), MRTX-1133 (NSC 836407), Iadademestat (ORY1001, NSC 806812), and RMC-4630 (NSC839698), were obtained from the NCI Developmental Therapeutics Program Chemical Repository. The FDA-approved anticancer drug set is available from the Developmental Therapeutics Program at https://dtp.cancer.gov/organization/dscb/obtaining/available plates.htm. […] The stock solutions were prepared in dimethyl sulfoxide (DMSO, Sigma-Aldrich, St. Louis, MO, cat. D2650) at 800-fold the tested concentration and stored at -70 degrees C prior to their use. All drugs and investigational agents were tested over a range starting from a high concentration at or near the clinical Cmax and decreasing in half-log increments. If the clinical Cmax for an agent had not been determined, the highest concentration tested was 10 microM.
The patient-derived cancer (PDC) cell lines include five colon adenocarcinomas: 186277-243-T-J2-PDC, 616215-338-R-J1-PDC, 439559-082-T-J2-PDC, 463943-066-T-J2-PDC, and 519858-162-T-J1-PDC; three pancreatic carcinomas: 323965-272-R-J2-PDC, 521955-158-R6-J3-PDC, and 521955-158-R2-J5-PDC; two uterine sarcomas: 327498-152-R-J2-PDC and 993429-296-R-J1-PDC; two rhabdomyosarcomas: 755483-174-R-J1-PDC and 772245-204-R-J1-PDC; two soft tissue sarcomas: 126254-015-R-J1-PDC and 494315-158-R-J1-PDC; two malignant fibrous histiocytomas: 317291-083-R-J1-PDC and 596521-263-R-J1-PDC; two breast carcinomas: 171881-019-R-J1-PDC and 885512-296-R-J2-PDC; and one ovarian carcinoma: 6556581-035-R-J-PDC were obtained from the NCI PDMR, (https://pdmr.cancer.gov). The established cell lines HSSY-2 synovial sarcoma (RRID:CVCL 8719), SYO-1 synovial sarcoma (RRID:CVCL_7146), MPNST malignant peripheral neural sheath tumor were obtained from the Sloan Kettering Institute. The following established cell lines were purchased from the American Type Culture Collection (ATCC, Manassas, VA), Sor the received from the NCI repository:, PANC-1 pancreatic carcinoma (CRL-1469, RRID:CVCL_0480), OVCAR-5 ovarian carcinoma (RRID:CVCL_1628), OVCAR-8 ovarian carcinoma (RRID:CVCL_1629), , MCF-7 breast carcinoma (CRL-12584, RRID:CVCL_0031), MDA-MB-231 breast carcinoma (CRL-12532, RRID:CVCL_0062), NCI-H1876 small cell lung carcinoma (CRL-5902, RRID:CVCL_1503), NCI-H510A small cell lung carcinoma (HTB-184, RRID:CVCL_1565), NCI-H1417 (CRL-5869, RRID:CVCL_1469), and NCI-H196 small cell lung carcinoma (CRL-5823, RRID:CVCL_1509). Dr. Peter Houghton (Greehey Children's Cancer Research Institute, University of Texas Health Science Center, San Antonio, TX) provided Rh-18 rhabdomyosarcoma (RRID:CVCL_1659). Pooled donor human umbilical vein endothelial cells (HUVEC, Lonza, cat. CC-2519) and human mesenchymal stem cells (hMSC, Lonza, cat. PT-2501) were purchased from Lonza (Walkersville, MD).
Cell Culture. […]

[1] = second compound 0.1 µM, first compound 0.0316 µM
[2] = second compound 0.1 µM, first compound 0.1 µM
[3] = second compound 0.1 µM, first compound 0.316 µM
[4] = second compound 0.1 µM, first compound 1 µM
[5] = second compound 0.1 µM, first compound 3.16 µM
[6] = second compound 0.1 µM, first compound 10 µM
[7] = second compound 0.316 µM, first compound 0.0316 µM
[8] = second compound 0.316 µM, first compound 0.1 µM
[9] = second compound 0.316 µM, first compound 0.316 µM
[10] = second compound 0.316 µM, first compound 1 µM
[11] = second compound 0.316 µM, first compound 3.16 µM
[12] = second compound 0.316 µM, first compound 10 µM
[13] = second compound 1 µM, first compound 0.0316 µM
[14] = second compound 1 µM, first compound 0.1 µM
[15] = second compound 1 µM, first compound 0.316 µM
[16] = second compound 1 µM, first compound 1 µM
[17] = second compound 1 µM, first compound 3.16 µM
[18] = second compound 1 µM, first compound 10 µM
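Also: spheroids exposed to compound for 7 days after 3 days of growth.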
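For viability, T/C in this document: 100% = DMSO vehicle control wells.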

Structure (SMILES)	IC50 (second compound 0.1 µM) [µM]	IC50 (second compound 0.316 µM) [µM]	IC50 (second compound 1 µM) [µM]	viability, T/C [1] [%]	viability, T/C [2] [%]	viability, T/C [3] [%]	viability, T/C [4] [%]	viability, T/C [5] [%]	viability, T/C [6] [%]	viability, T/C [7] [%]	viability, T/C [8] [%]	viability, T/C [9] [%]	viability, T/C [10] [%]	viability, T/C [11] [%]	viability, T/C [12] [%]	viability, T/C [13] [%]	viability, T/C [14] [%]	viability, T/C [15] [%]	viability, T/C [16] [%]	viability, T/C [17] [%]	further results
C#Cc1c(F)ccc2cc(O)cc(-c3ncc4c(N5CC6CCC(C5)N6)nc(OCC56CCCN5CC(F)C6)nc4c3F)c12 (stereo not given) + Cc1c(S(C)(=O)=O)c(-c2cc(F)cc(N3CCN(c4ccc(NS(=O)(=O)c5ccc(NC(CCN6CCC(C(=O)OCCCP(=O)(O)O)CC6)CSc6ccccc6)c(S(=O)(=O)C(F)(F)F)c5)cc4)CC3)c2)c(-c2ccc(Cl)cc2)n1C(C)C	> 10	5.99	3.18	97.2	107	82.5	75.1	61.7	50.1	102	88.9	88.3	65.8	53.8	47.3	90.6	101	81	71.1	47.9	IC50 (second compound 3.16 µM): 5.04 µM; IC50 (second compound 10 µM): > 10 µM; viability, T/C [18]: 43.8%; viability, T/C (second compound 3.16 µM, first compound 0.0316 µM): 96.6%; viability, T/C (second compound 3.16 µM, first compound 0.1 µM): 87.5%; viability, T/C (second compound 3.16 µM, first compound 0.316 µM): 70.8%; viability, T/C (second compound 3.16 µM, first compound 1 µM): 69.7%; viability, T/C (second compound 3.16 µM, first compound 3.16 µM): 51.4%; viability, T/C (second compound 3.16 µM, first compound 10 µM): 44.4%; viability, T/C (second compound 10 µM, first compound 0.0316 µM): 166%; viability, T/C (second compound 10 µM, first compound 0.1 µM): 165%; viability, T/C (second compound 10 µM, first compound 0.316 µM): 150%; viability, T/C (second compound 10 µM, first compound 1 µM): 145%; viability, T/C (second compound 10 µM, first compound 3.16 µM): 133%; viability, T/C (second compound 10 µM, first compound 10 µM): 86.6%
C=CC(=O)N1CCN(c2nc(=O)n(-c3c(C)ccnc3C(C)C)c3nc(-c4c(O)cccc4F)c(F)cc23)C(C)C1 (stereo not given) + CNC(C)C(=O)NC1CN(S(=O)(=O)c2cccc(S(=O)(=O)N3CCC4CCC(C(=O)NC(c5ccccc5)c5ccccc5)N4C(=O)C(NC(=O)C(C)NC)C3)c2)CCC2CCC(C(=O)NC(c3ccccc3)c3ccccc3)N2C1=O	> 10	> 10	> 10	86	79.4	84.5	77.6	70.4	67.6	89.4	83.3	80.7	73.8	77.2	75.5	90.6	78.8	85.4	77	72.2	IC50 (second compound 0.01 µM): > 10 µM; IC50 (second compound 0.0316 µM): > 10 µM; viability, T/C (second compound 0.01 µM, first compound 0.0316 µM): 84.2%; viability, T/C (second compound 0.01 µM, first compound 0.1 µM): 96%; viability, T/C (second compound 0.01 µM, first compound 0.316 µM): 75%; viability, T/C (second compound 0.01 µM, first compound 1 µM): 74.6%; viability, T/C (second compound 0.01 µM, first compound 3.16 µM): 77.8%; viability, T/C (second compound 0.01 µM, first compound 10 µM): 64.6%; viability, T/C (second compound 0.0316 µM, first compound 0.0316 µM): 83.5%; viability, T/C (second compound 0.0316 µM, first compound 0.1 µM): 77.9%; viability, T/C (second compound 0.0316 µM, first compound 0.316 µM): 70.5%; viability, T/C (second compound 0.0316 µM, first compound 1 µM): 67%; viability, T/C (second compound 0.0316 µM, first compound 3.16 µM): 72.2%; viability, T/C (second compound 0.0316 µM, first compound 10 µM): 62.9%; viability, T/C [18]: 69.7%
